According to the supplement of paper PMC9265050, “Inhibition of RNA Binding in SND1 Increases the Levels of miR-1-3p and Sensitizes Cancer Cells to Navitoclax” (Cancers, 2022):

Tested on: SW480
Assay: drug sensitivity score (DSS, integrated dose-response area); higher = more sensitive (stronger viability reduction); extreme values may be limits of the assay
How it was run: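 The drug sensitivity score is the integrated area under a fitted non-linear dose–response model. It was derived from SW480 cells with doxycycline-inducible control or SND1-targeting shRNA, induced with 0.1 µg/mL doxycycline for 7 days and plated at 1000 cells per well on 384-well plates of 525 commercially available small-molecule inhibitors at five concentrations. CellTiter-Glo measured viability after 72 h.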

[1] = shRNA: SND1 shRNA1 (SND1 silenced)
[2] = shRNA: SND1 shRNA2 (SND1 silenced)
[3] = shRNA: control shRNA (non-targeting)

Structure (SMILES)	drug sensitivity score [1] [DSS]	drug sensitivity score [2] [DSS]	drug sensitivity score [3] [DSS]
CN[C@@H](C)C(=O)N[C@H]1CN(C(=O)CC(C)C)CC[C@H]2CC[C@@H](C(=O)NC(c3ccccc3)c3ccccc3)N2C1=O [AT-406]	0	0	0
C[C@@H](Nc1cc(F)cc(F)c1)c1cc(C(=O)N(C)C)cc2c(=O)cc(N3CCOCC3)oc12 [AZD-8186]	0	0	0
CN(C)C1CCN(C(=O)c2ccc(NC(=O)Nc3ccc(-c4nc(N5CCOCC5)nc(N5CCOCC5)n4)cc3)cc2)CC1 [Gedatolisib]	4.2	9.6	10.3
CNC(=O)c1cc(Oc2ccc(NC(=O)Nc3ccc(Cl)c(C(F)(F)F)c3)cc2)ccn1 [Sorafenib]	0	0	0
COc1cc2nccc(Oc3ccc(NC(=O)Nc4cc(C)on4)c(Cl)c3)c2cc1OC [Tivozanib]	3.8	3.6	5
COc1cc(Br)c(Nc2nc(-c3c(C)nc4ncccn34)cs2)c(Br)c1 [PTC-209]	6.7	2.2	7.1
COc1ccc(-c2ccc3c(N4CCOC[C@@H]4C)nc(N4CCOC[C@@H]4C)nc3n2)cc1CO [AZD8055]	20.6	19.2	14.9
CN1CCC(CNc2ccc3ncc(-c4cccc(OC(F)(F)F)c4)n3n2)CC1 [SGI-1776]	9.6	9.5	8.9
Cc1ncc(Cl)cc1NCc1ccc(C(=O)N[C@@H](CC2CCCC2)C(=O)NC2CC2)s1	0	0	0.3
COCC(=O)NC/C=C/c1ccc2ncnc(Nc3ccc(Oc4ccc(C)nc4)c(C)c3)c2c1	3.4		3.2
Nc1cc(C(F)(F)F)c(-c2cc(N3CCOCC3)nc(N3CCOCC3)n2)cn1 [Buparlisib]	8.9	7.7	5.9
Cc1ccc(C(=O)N(CCCN)[C@@H](c2oc3cc(Cl)ccc3c(=O)c2Cc2ccccc2)C(C)C)cc1	2.9	3.7	5.5
COc1cc(Nc2ncc(F)c(Nc3ccc4c(n3)N(COP(=O)(O)O)C(=O)C(C)(C)O4)n2)cc(OC)c1OC [Fostamatinib]	3.4		2.6
CCOC(=O)CCNc1cc(N2CCc3ccccc3CC2)nc(-c2ccccn2)n1 [GSK-J4]	14	14.7	12.3
CN(C)c1cc2c(cc1Sc1nc3c(N)nccc3n1CCNCC(C)(C)C)OCO2 [CUDC-305]	13.3	13.1	14.9
Clc1ccc(Nc2nnc(Cc3ccncc3)c3ccccc23)cc1 [Vatalanib]	1.8	6.5	2
O=C(NOC[C@H](O)CO)c1ccc(F)c(F)c1Nc1ccc(I)cc1F	17.9	8.2	9.5
CC(C)Oc1cc(Nc2nc(N[C@@H](C)c3ccc(F)cn3)ncc2Cl)n[nH]1 [AZ-23]	3.1	1.9	4.5
NC(=O)Nc1sc(-c2ccc(F)cc2)cc1C(N)=O [TPCA-1]	3.8		2.3

Structure (SMILES)	drug sensitivity score [1] [DSS]	drug sensitivity score [2] [DSS]	drug sensitivity score [3] [DSS]
c1cn2cc(-c3ccc4cn[nH]c4c3)nc(Nc3ccc(N4CCOCC4)cc3)c2n1 [Entospletinib]	0	0	0
O=C(c1cc(Cc2n[nH]c(=O)c3ccccc23)ccc1F)N1CCN(C(=O)C2CC2)CC1 [Olaparib]	2.7	0	0
CC(C)C[C@H](NC(=O)[C@H](Cc1ccccc1)NC(=O)c1cnccn1)B(O)O [Bortezomib]	28.8	28.1	28.7
Cn1cnc2c(F)c(Nc3ccc(Br)cc3Cl)c(C(=O)NOCCO)cc21 [Selumetinib]	19.1	8.9	4.7
CCNC(=O)CCC/C=C\C[C@@H]1[C@@H](/C=C/[C@@H](O)CCc2ccccc2)[C@H](O)C[C@@H]1O [Bimatoprost]	0	0	0
Nc1ncnc2c1nc(N)n2[C@@H]1O[C@H](CO)[C@@H](O)[C@H]1O [8-amino-adenosine]	23.6	24.3	22.2
COc1cc(Nc2c(C#N)cnc3cc(OCCCN4CCN(C)CC4)c(OC)cc23)c(Cl)cc1Cl [Bosutinib]	9.2	7.3	8
CCN(CC)C(=S)SSC(=S)N(CC)CC [Disulfiram]	29.7		28.6
NC(=S)N/N=C/c1ncccc1N [Triapine]	2.8		2.4
Cc1cn(-c2cc(NC(=O)c3ccc(C)c(Nc4nccc(-c5cccnc5)n4)c3)cc(C(F)(F)F)c2)cn1 [Nilotinib]	2.6	3.8	1.6
C[C@]1(O)C[C@@H](c2nc(-c3ccc4ccc(-c5ccccc5)nc4c3)c3c(N)nccn32)C1 [Linsitinib]	0	0.1	0.2
NC[C@@](O)(c1ccc(Cl)cc1)c1ccc(-c2cn[nH]c2)cc1	8	4.7	10.2
COc1cc([C@@H]2c3cc4c(cc3[C@@H](O[C@@H]3O[C@@H]5CO[C@@H](C)O[C@H]5[C@H](O)[C@H]3O)[C@H]3COC(=O)[C@H]23)OCO4)cc(OC)c1O [Etoposide]	3.1	0.4	3.3
COC[C@H](NC(=O)c1cnc(C)s1)C(=O)N[C@@H](COC)C(=O)N[C@@H](Cc1ccccc1)C(=O)[C@@]1(C)CO1 [Oprozomib]	17.7	16.5	19
Cn1nccc1Nc1nccc(-c2ccn([C@H](CO)c3ccc(Cl)c(F)c3)c(=O)c2)n1 [GDC-0994]	5.9	0.2	5.2
CCCNC(=O)Nc1ccc(Oc2ncnc3cc(OC)c(OC)cc23)cc1Cl [KRN-633]	0	0.4	0.6
CON(C)C(=O)N1N=C(c2cc(F)ccc2F)S[C@@]1(CCCN)c1ccccc1 [Filanesib]	16.8	16	16.7
CC[C@@H]1C(=O)N(C)c2cnc(Nc3ccc(C(=O)N[C@H]4CC[C@H](N5CCN(CC6CC6)CC5)CC4)cc3OC)nc2N1C(C)C [Volasertib]	13.1	14.4	14.8
Nc1nc(NC2CC2)cc(-c2cccc(Cl)c2Cl)n1 [TH588]	6.2		6.3
